Assays:
[1] = Solubility and stability of API in dependence of surfactant concentration; assay type: physicochemical; settings: phosphate buffer and 0.50% vitamin E TPGS, compared with other buffer/surfactant combinations at 0.25% and 0.5%
Experimental: In order to prevent too high concentrations of surfactants, which can cause irritant or toxic effects after local administration in the bladder, lower concentrations were evaluated. New batches of API in citrate and phosphate buffer were manufactured. SLS and vitamin E TPGS were chosen for citrate buffer and Labrasol® and vitamin E TPGS for phosphate buffer in a concentration of 0.5% and 0.25%, each. The compositions were stirred overnight prior to filtration and analysis.

[2] = Stability after autoclaving; assay type: physicochemical; settings: 121° C. and 2 bar for 20 min
Experimental: The stability of the pharmaceutical composition was assessed by means of autoclaving experiments, where the compositions were treated at 121° C. and 2 bar for 20 min.
Autoclaving experiments were performed with the aim to evaluate the stability of API in defined buffer systems and excipients. Clear glass covered by aluminium foil was chosen as primary packaging as it provided sufficient light protection for the material and was expected to provide a smaller risk of interaction than amber glass. The batches were autoclaved at 121° C. and 2 bar for 20 min, following analysis of impurity profiles.

CN(C)[C@]1(c2cccc(F)c2)CC[C@]2(CC1)c1[nH]c3ccccc3c1CCN2C(=O)/C=C/c1ccccc1 [API, cis-(E)-4-(3-fluorophenyl)-2′,3′,4′,9′-tetrahydro-N,N-dimethyl-2′-(1-oxo-3-phenyl-2-propenyl)-spiro[cyclohexane-1,1′[1H]-pyrido[3,4-b]indol]-4-amine]
assay and impurities [1]: highest assay and lowest impurities values | degradation of API after autoclaving ([2]; citrate buffer and SLS): highest degradation | degradation of API after autoclaving ([2]; phosphate buffer and vitamin E TPGS): lowest degradation
